Key:
[1] = target: homogenate of the brain of the AD patient (tau aggregates or amyloid β aggregates); assay: In vitro binding test, homogenate of the brain of the AD patient; design: species or system human; conditions: [18F]SPAL-T-06 5 nM displaced by non-labeled SPAL-T-06 0.01 nM to 1 μM; frontal cortex; room temperature 30 minutes
Description: (§1) Fresh frozen tissue from the amygdala in the brain of a DLB patient and fresh frozen tissue from the frontal cortex in the brain of an AD patient were used. To each fresh frozen brain tissue, zirconia beads (ZB-20, TOMY) and a buffer solution which was 10 times the wet weight of the tissue were added. A mixture thus obtained was smashed with use of Micro Smash (MS-100R, TOMY) and then stored at −80° C. A homogenate of the brain of the DLB patient or a homogenate of the brain of the AD patient, [^18F]SPAL-T-06 (final concentration: 5 nM), and non-labeled SPAL-T-06 (final concentration: 0.01 nM to 1 μM) were mixed into a Tris-HCl buffer solution (containing 20% ethanol). Incubation was carried out at room temperature for 30 minutes, and then B/F separation (B: bound ligand, F: free ligand) was carried out by suction filtration and washing. Thereafter, radioactivity captured on a glass filter was measured with use of a gamma counter (2480WIZARD2, ParkinElmer). With regard to the concentration of each non-labeled SPAL-T-06, a test was carried out in triplicate. Results were analyzed with use of Prism 6J (GraphPad), displacement curves of the tested compounds were obtained, and then IC50 of each was calculated.

[2] = target: T1, lesions caused by phosphorylated α-synuclein (Homo sapiens, UniProt P37840); assay: In vitro autoradiography of human brain sections (DLB, MSA, healthy subject); type: binding; conditions: 10 nM
T1 construct: α-synuclein aggregates formed in the brain of the DLB patient; from tissue; host or cells: post-mortem human brain: amygdala of DLB patient (sections or homogenate); cerebellum of MSA patient
Description: Postmortem human brains were obtained in autopsies carried out with respect to a DLB patient, a multiple system atrophy (MSA) patient, and a healthy subject. In a cryostat (HM560, Carl Zeiss), frozen tissue from the DLB patient and frozen tissue from the healthy subject were sliced into sections each having a thickness of 20 μm. Brain tissue from the MSA patient was fixed in 10% neutral buffered formalin, embedded in a paraffin block, and sliced into sections each having a thickness of 6 μm.
Postfixed fresh frozen sections of amygdala tissue from the brain of the DLB patient and the frontal cortex tissue from the brain of the healthy subject and deparaffinized sections of formalin-fixed paraffin-embedded cerebellum tissue from the brain of the MSA patient were used. Each brain tissue section and [^18F]SPAL-T-06 (final concentration: 10 nM) were incubated in 50 mM Tris-HCl containing 20% ethanol at room temperature for 1 hour. In order to detect specific binding, the brain tissue section was also incubated in 50 mM Tris-HCl (containing 20% ethanol) containing [^18F]SPAL-T-06 (final concentration: 10 nM) and non-labeled SPAL-T-06 (final concentration: 10 μM). Subsequently, the section was washed with 50 mM Tris-HCl (containing 20% EtOH) at 4° C. for 2 minutes. This washing was carried out twice. Thereafter, the section was rinsed with MilliQ. […]

[3] = Ex vivo imaging (autoradiography) of brain of physiological saline-injected mouse; type: in vivo; conditions: intravenous, brain collected 40 minutes after administration
Description: A physiological saline-injected mouse was anesthetized with 1.5% (v/v) isoflurane. Then, [^18F]SPAL-T-06 (28.9 MBq) was intravenously injected into the physiological saline-injected mouse. Forty minutes after the administration of [^18F]SPAL-T-06, the brain was collected and frozen. In a cryostat (HM560), frozen coronal sections each having a thickness of 20 μm and respectively including positions at 0.50 mm, −0.46 mm, −1.94 mm, −3.16 mm, and −6.64 mm from the bregma were prepared. Each section was air-dried, and then placed in contact with an imaging plate for 15 minutes in a cassette. Thereafter, autoradiographs were obtained with use of BAS-5000 (Fuji Film).

[4] = target: T2, homogenate of the brain of the DLB patient which was rich in α-synuclein lesions (Homo sapiens, UniProt P37840); assay: In vitro binding test, homogenate of the brain of the DLB patient
T2 construct: α-synuclein aggregates formed in the brain of the DLB patient; from tissue; host or cells: post-mortem human brain: amygdala of DLB patient (sections or homogenate); cerebellum of MSA patient
Description: as §1

α-synuclein aggregates [5] = target: T3, α-synuclein aggregates (Mus musculus, UniProt O55042); assay: In vivo PET imaging of mouse brain (α-synuclein fibril-inoculated mouse vs physiological saline-injected mouse); conditions: α-synuclein fibril-inoculated model mouse, intravenous injection
T3 construct: from tissue; host or cells: brain of C57/BL/6 mouse inoculated in the striatum with recombinant (E. coli) mouse α-synuclein fibrils; sections or living animal
Description: First, mouse α-synuclein was expressed in and extracted from E. coli as a recombinant protein, and then incubated in vitro to form insoluble α-synuclein aggregates. The α-synuclein aggregates were then inoculated into the striatum of a mouse. […] Note that the inoculation of the α-synuclein aggregates into the striatum of the mouse was carried out in the following manner. First, hair on the head of a 9-week-old C57/BL/6 male mouse which had been anesthetized with 1.5% (v/v) isoflurane was removed, and the scalp was disinfected with isodine, followed by application of xylocaine and incision in the scalp to expose the skull. Then, a hole was drilled in the skull at a position of 0.05 mm posterior to the bregma and 2 mm lateral to the midline, and 3 μl of an α-synuclein fibril solution (mouse α-synuclein fibril (4 mg/ml) in saline) was injected into a position […] ventral to the brain surface with use of a glass pipette. The scalp was then returned and sutured.
PET scanning was carried out with use of a micro PET Focus 220 animal scanner (Siemens Medical Solutions), which provided 95 slices each having a thickness of 0.851 mm (center thickness), a […]. Before the scanning, an α-synuclein fibril-inoculated mouse and a physiological saline-injected mouse (control) were each anesthetized with 1.5% (v/v) isoflurane. […]

α-synuclein aggregates [6] = assay: In vivo PET imaging of α-synuclein fibril-inoculated marmoset brain; conditions: intravenous injection

IC50 [1]: 10.9 nM
non-specific binding in gray matter and white matter of healthy subject frontal cortex (autoradiography) ([2]; section of frontal cortex of healthy subject): hardly observed
binding selectivity with respect to α-synuclein aggregates versus tau or amyloid β aggregates (homogenate binding) ([4]; DLB versus AD brain homogenate): high binding selectivity
IC50 ([4]; [18F]SPAL-T-06 5 nM displaced by non-labeled SPAL-T-06 0.01 nM to 1 μM, amygdala, room temperature 30 minutes): 1.58 nM
accumulation in striatum and cerebral cortex rich in α-synuclein lesions (PET) (α-synuclein aggregates [5]): clear accumulation
Compound: CNc1cnc(C#C/C=C/c2nc3ccc(OCC(O)C[18F])cc3s2)cn1 (centres unmarked) [[^18F]SPAL-T-06, [^18F]-(E)-1-fluoro-3-((2-(4-(5-(methylamino)pyrazin-2-yl)but-1-en-3-yn-1-yl)benzo[d]thiazol-6-yl)oxy)propan-2-ol]
binding to areas rich in lesions caused by phosphorylated α-synuclein (autoradiography) ([2]; DLB amygdala and MSA cerebellum sections, 1 hour): bound to areas in the brains of the DLB patient and the MSA patient which were rich in lesions caused by phosphorylated α-synuclein
nonspecific accumulation in the white matter area (ex vivo autoradiography) [3]: not seen
accumulation in the caudate nucleus rich in α-synuclein lesions (PET) (α-synuclein aggregates [6]): clear accumulation

Source: US12630544B2, “Compound, α-synuclein aggregate binder, and use thereof” (NATIONAL INSTITUTES FOR QUANTUM SCIENCE AND TECHNOLOGY, priority 2020, dated 2026)
